The results in this text go back to ChEMBL document CHEMBL1146996, “Hispidin analogs from the mushroom Inonotus xeranticus and their free radical scavenging activity” (Bioorg Med Chem Lett, 2006).

Holding throughout (format): functional
Assay [1] relates to Radical scavenging activity. The assay can be described thus: DPPH radical scavenging activity.
Assay [2] concerns Radical scavenging activity. The assay can be described thus: ABTS radical scavenging activity.
Assay [3] concerns Radical scavenging activity. The assay can be described thus: Superoxide radical scavenging activity.

On to `O=C(O)/C=C/c1ccc(O)c(O)c1` [CAFFEIC ACID], for which the IC50 in assay [1] worked out at 31.7 µM; in assay [2], 2.8 µM; in assay [3] it was 2.9 µM.
In the case of `CC1=CC(=O)[C@H](c2c(O)cc(/C=C/c3ccc(O)c(O)c3)oc2=O)[C@@H](c2ccc(O)c(O)c2)O1` [DAVALLIALACTONE], the IC50 was found to be 3.4 µM in assay [1], 0.8 µM in assay [2] and 2.3 µM in assay [3].
The matching figures for `CC(=O)c1c(-c2ccc(O)c(O)c2)oc2cc(/C=C/c3ccc(O)c(O)c3)oc(=O)c12` [INOSCAVIN C]: > 100 µM, 7.8 µM and > 100 µM.
The matching figures for `COc1cc(/C=C/c2cc(O)c([C@H]3C(=O)C=C(C)O[C@@H]3c3ccc(O)c(O)c3)c(=O)o2)ccc1O` [METHYLDAVALLIALACTONE]: 18.7 µM, 1.5 µM and 5.4 µM.
The matching figures for `COc1cc(/C=C/c2cc3oc(-c4ccc(O)c(O)c4)c(C(C)=O)c3c(=O)o2)ccc1O` [METHYLINOSCAVIN C]: > 100 µM, 12.3 µM and > 100 µM.
